Laboratory results: US4185010A, “Nonapeptides” (American Home Products Corporation, priority 1978, dated 1980)
Where a SMILES comes first, the peptide text is derived from it. Bridges are numbered along the chain shown (N, C = ends). [ ]: non-standard residue; d: D form. Abu = CC[C@H](N)C(=O)O

Experiments:
Format in all cases: in vivo
[1] = tested on: growth hormone (GH); experiment: Arginine-stimulated hormone release in Nembutal-anesthetized rats, growth hormone by radioimmunoassay; details: albino male rats, 1,000 μg/kg subcutaneous, blood 15 min after dose (5 min after arginine); control 454 ± 106
Description: (§1) Albino male rate are administered Nembutal intraperitoneally at a dose of 50 milligrams per kilogram. Fifteen minutes later a subcutaneous injection of the test compound or physiological saline (control) is administered. Ten minutes later 0.5 milliliters of arginine (300 milligrams per milliliter, pH 7.2) is injected into the heart. Five minutes after receipt of the arginine the rats are decapitated and blood is collected into trasylol-EDTA. An appropriate aliquot is assayed for growth hormone (GH), insulin, and glucagon by radioimmunoassay.

[2] = tested on: insulin; experiment: Arginine-stimulated hormone release in Nembutal-anesthetized rats, insulin by radioimmunoassay; details: albino male rats, 1,000 μg/kg subcutaneous, blood 15 min after dose (5 min after arginine); control 269 ± 37
Description: as §1

[3] = tested on: glucagon; experiment: Arginine-stimulated hormone release in Nembutal-anesthetized rats, glucagon by radioimmunoassay
Description: as §1

Question: With `CC[C@@H]1NC(=O)[C@H](CCCCN)NC(=O)[C@@H](Cc2c[nH]c3ccccc23)NC(=O)[C@H](Cc2ccccc2)NC(=O)[C@H](Cc2ccccc2)NC(=O)[C@H](Cc2c[nH]cn2)NC(=O)[C@@H](N)CSSC[C@@H](C(=O)O)NC(=O)[C@H](Cc2ccccc2)NC1=O` [Example 2, L-Cysteinyl-L-histidyl-L-phenylalanyl-L-phenylalanyl-D-tryptophyl-L-lysyl-L-α-aminobutyryl-L-phenylalanyl-L-cysteine cyclic (1-9) disulfide] (H-CHFF[dW]K[Abu]FC-OH; disulfide 1-9) as the compound, how does the GH [1] read?
Answer: 413 ± 98 ng/mL

Question: What about the INS [2] of the same compound?
Answer: 262 ± 39 μU/ml

Question: And the GLUN ([3]; albino male rats, 1,000 μg/kg subcutaneous, blood 15 min after dose (5 min after arginine), control 60 ± 10, p<0.05)?
Answer: 31 ± 5 pg/mL

Question: And the “selective inhibition of glucagon release versus growth hormone and insulin levels” value ([3]; without materially altering blood serum growth hormone and insulin levels)?
Answer: selectively inhibit glucagon release
